# From PubChem BioAssay AID2387 (Broad Institute, 2010)
# pEC50: −log10 of the molar value. Values joined by “and” are separate entries in the source; they are usually repeats but may differ in a detail not shown here. Equal entries are not always repeated. Active and inactive are the calls of the source.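 The calls were made as follows: active = fitted EC50 no more than tenfold above the highest tested concentration; inconclusive = flat fit with 30 to 70% signal loss, or poor fit; inactive = the rest.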
# Tested on: Candida albicans CaCi-2 growth (no fluconazole), Alamar Blue
# Experiment: C. albicans growth inhibition without fluconazole, dose response, counter-screen for fluconazole resistance reversal project, CaCi-2 strain, Alamar Blue fluorescence (AID 2387)
# Conditions: C. albicans CaCi-2 (fluconazole-resistant clinical isolate) growth without fluconazole, 48 h
SMILES,EC50,pEC50
Cc1cccc(C(=O)NNC2=C(C(=O)C(F)(F)F)CCC2)c1O,> 16 µM (inactive),
CCc1nnc(NC(=O)CSc2ncc(-c3ccccc3)n2C)s1,> 15 µM (inactive),
COc1cccc(N=Nc2ccc(O)c3ncccc23)c1,,5.90
O=C(NC(Nc1nc2ccc([N+](=O)[O-])cc2s1)(C(F)(F)F)C(F)(F)F)c1ccccc1Cl,> 16 µM (inactive),
Cc1ccc(NC(=O)CNC(=O)c2ccc(Oc3ccccc3)cc2)nc1,> 15 µM (inactive),
C[C@@H]1CC[C@@]2(NC1)O[C@H]1C[C@H]3[C@@H]4CC=C5C[C@@H](O)CC[C@]5(C)[C@H]4CC[C@]3(C)[C@H]1[C@@H]2C,> 16 µM (inactive),
CCCOc1ccc(C(=O)NNC(=S)NC(C)=O)cc1,> 16 µM (inactive),
CCc1ccc2c(c1)/C(=C/C(=O)c1cccs1)C(=O)N2,> 15 µM (inactive),
CC[n+]1c(/C=C2\Sc3ccccc3N2C)ccc2cccc(C)c21,,5.61
Nc1[nH]c(=O)ncc1F,> 16 µM (inactive),
O=C(O)c1ccccc1-c1ccccc1C(=O)Nc1cccc(-c2nc3ccccc3o2)c1,> 15 µM (inactive),
CC(CC(=O)Nc1ncc([N+](=O)[O-])s1)c1ccccc1 (centres undefined),> 16 µM (inactive),
O=C(CCS(=O)(=O)c1ccc(Cl)cc1)Nc1nc(-c2ccncc2)cs1,> 15 µM (inactive),
COc1ccc(-n2nc(C(=O)NCC(=O)N3CCN(c4ccc(F)cc4)CC3)c3ccccc3c2=O)c(OC)c1,> 15 µM (inactive),
Cc1nn(-c2ccccc2)c(Cl)c1/C=C/C(=O)c1ccc(O)cc1,> 16 µM (inactive),
O=C(N/N=C/c1cc([N+](=O)[O-])ccc1O)c1ccc(COc2ccc3c(c2)CCC3)o1,,4.91
CCC(=O)NC(c1cccs1)c1cc([N+](=O)[O-])c2cccnc2c1O (centres undefined),> 15 µM (inactive),
CCCCCCC[n+]1ccc(-c2cc[n+](CCCCCCC)cc2)cc1,,5.78
Cc1cc(N/N=C/c2c(O)ccc3ccccc23)nc(-c2ccccc2O)n1,> 16 µM (inactive),
CC(=O)NC(c1cccs1)c1cc([N+](=O)[O-])c2cccnc2c1O (centres undefined),> 15 µM (inactive),
S=c1[nH]nc(C2CCCCC2)n1/N=C/c1ccc(Br)s1,> 15 µM (inactive),
O=C(Nc1nnc(SCc2ccc(Cl)cc2)s1)c1cnccn1,> 16 µM (inactive),
CC(C)COCc1ccc(O)c2ncccc12,,4.79
O=C(c1ccc(Cn2c(=O)[nH]c3ccccc3c2=O)cc1)N1CCN(c2ccc(F)cc2)CC1,> 15 µM (inactive),
Clc1ccc2c(c1)C(c1cccs1)=NNC(c1cccnc1)=N2,> 15 µM (inactive),

SMILES,EC50,pEC50
CCCCCCSc1nnc2[nH]c(=O)cc(N)n12,> 15 µM (inactive),
CN(C)S(=O)(=O)Oc1cccc(C(=O)Nc2ccc(Cl)c(Cl)c2)c1,> 15 µM (inactive),
Cc1cc(C)c(-c2cc(NC(=O)COC(=O)c3ccc(C#N)cc3)n(-c3ccccc3)n2)cc1C,> 16 µM (inactive),
Oc1c(Br)cc(Br)cc1/C=N/Nc1ccc(Cl)nn1,> 16 µM (inactive),
Cc1ccccc1/C=C1\SC(=S)N(/N=C/c2cc([N+](=O)[O-])ccc2O)C1=O,> 16 µM (inactive),
CC(C)(C)c1ccc(CSc2cnn(C(C)(C)C)c(=O)c2Cl)cc1,> 16 µM (inactive),
Cc1nnc(NC(=O)CSc2ncnc3c2cnn3-c2ccccc2C)s1,> 15 µM (inactive),
CCCCCCc1c(C)nc(-n2[nH]c(C)c(CCO)c2=O)[nH]c1=O,> 16 µM (inactive),
O=[N+]([O-])c1cc(CN2CCN(c3ccccc3)CC2)c(O)c2ncccc12,,5.21
CC[n+]1c(C=C2C=C(C)OC(C)=C2)sc2ccccc21,> 16 µM (inactive),
O=C(Oc1cc2oc(=O)c3c(c2cc1Cl)CCCC3)c1cccs1,> 15 µM (inactive),
Nc1c(S(=O)(=O)c2ccccc2)c2nc3ccccc3nc2n1CCN1CCOCC1,> 16 µM (inactive),
NC(=NCCCCCCN=C(N)/N=C(\N)Nc1ccc(Cl)cc1)/N=C(\N)Nc1ccc(Cl)cc1,> 16 µM (inactive) and > 15 µM (inactive),
CCn1c(Sc2nc(C)nc3scc(-c4cccs4)c23)n[nH]c1=O,> 16 µM (inactive),
CS/C(=N\S(=O)(=O)c1cccs1)Nc1ccc(Br)cc1F,> 15 µM (inactive),
CS(=O)(=O)NN1C(=O)c2ccccc2NC1c1cccc2cccnc12 (centres undefined),> 16 µM (inactive),
CC(=O)NC1CCCN(O)C(=O)/C=C(\C)CCOC(=O)C(NC(C)=O)CCCN(O)C(=O)/C=C(\C)CCOC(=O)C(NC(C)=O)CCCN(O)C(=O)/C=C(\C)CCOC1=O (centres undefined),,5.69
CNC(=O)Nc1cc(C(F)(F)F)cc(C(F)(F)F)c1,> 15 µM (inactive),
O=C(c1cc2ccccc2cc1O)N1CCN(c2ccccc2O)CC1,> 15 µM (inactive),
Cn1c(N2CCOCC2)c(/C=N/OC(=O)c2ccc(F)cc2)c2ccccc21,> 16 µM (inactive),
C[n+]1c2n(c3ccccc31)N=C(c1ccc(-c3ccccc3)cc1)CS2,> 16 µM (inactive),
CCCn1nc([N+](=O)[O-])c(C(C#N)c2nc3ccccc3s2)c(Cl)c1=O (centres undefined),> 16 µM (inactive),
CCc1ccc(C2c3[nH]c4ccccc4c3CCN2C(=O)c2ccc(=O)n(C)n2)cc1 (centres undefined),> 16 µM (inactive),
O=C(N/N=C/c1cc2c3c(c1O)CCCN3CCC2)c1ccccc1O,,5.67
O=C(NNc1nc2ccc(Cl)cc2s1)c1cc(-c2cccs2)nc2ccccc12,> 16 µM (inactive),

SMILES,EC50,pEC50
Cc1c(OCC(=O)NCC(O)c2ccccc2)ccc2c(-c3ccccc3)cc(=O)oc12 (centres undefined),> 16 µM (inactive),
O=C(NNC(=S)Nc1ccc(Cl)c(Cl)c1)c1ccccn1,,4.95
CC(Nc1ncnc2ccccc12)c1ccccc1 (centres undefined),> 16 µM (inactive),
CC(C)CCN1C(=O)c2ccc(C(=O)Nc3ccc(Br)cc3C(=O)O)cc2C1=O,> 16 µM (inactive),
CC(=O)NC(c1ccc(C)cc1)c1cc([N+](=O)[O-])c2cccnc2c1O (centres undefined),> 16 µM (inactive),
CCn1c(O)c(N=NC(=O)c2cccs2)c2ccccc21,> 15 µM (inactive),
COc1ccccc1OCC(=O)N/N=C/C=C/c1ccc([N+](=O)[O-])o1,> 16 µM (inactive),
Cn1cc(C(c2ccccn2)c2cn(C)c3ccccc23)c2ccccc21,> 15 µM (inactive),
O=[N+]([O-])c1ccc(O)c(Nc2ncnc3ccc(Br)cc23)c1,> 16 µM (inactive),
Nc1nonc1-n1nnc(C(=O)N/N=C/c2cc(Cl)ccc2O)c1CN1CCCCCC1,> 15 µM (inactive),
O=C(c1ccc(Cl)cc1)N1CCN(c2ccnc3cc(Cl)ccc23)CC1,> 15 µM (inactive),
C=CCNC(=S)N/N=C(\C)c1ccccn1,,5.30
CCN1CCN(C(c2cccnc2)c2cc(Cl)c3cccnc3c2O)CC1 (centres undefined),,4.81
Cc1cc(Nc2ccccc2)nc(NCc2ccccc2)n1,> 15 µM (inactive),
Cc1cc(Br)ccc1OCC(=O)NNC(=O)C(=O)Nc1ccccc1,> 15 µM (inactive),
Oc1cccc(C(Nc2nccs2)c2ccc3cccnc3c2O)c1 (centres undefined),> 16 µM (inactive),
Oc1c(C(Nc2nccs2)c2ccc(C(F)(F)F)cc2)ccc2cccnc12 (centres undefined),,5.36
Cc1ccccc1C(=O)O/N=C/c1c(N2CCOCC2)n(C)c2ccccc12,> 16 µM (inactive),
CCc1nnc(NC(=O)CSc2nc(SC)ns2)s1,> 16 µM (inactive),
COc1ccc(OC)c(C2C(C(=O)c3cc4ccccc4o3)=C(O)C(=O)N2c2cc(C)on2)c1 (centres undefined),> 15 µM (inactive),
O=C(Oc1c(CN2CCOCC2)cc(Cl)c2cccnc12)c1ccc(F)cc1,> 16 µM (inactive),
Oc1c(C(c2ccccc2Cl)N2CCCC2)ccc2cccnc12 (centres undefined),,4.84
CCc1nnc(NC(=O)CN2CCN(c3nc(-c4ccccc4)cs3)CC2)s1,> 15 µM (inactive),
O=C(Nc1nnc(-c2ccco2)o1)c1ccc(Cl)cc1,> 15 µM (inactive),
Cc1oc2c(F)c(F)c(F)c(F)c2c1S(=O)(=O)Nc1cccc(C(F)(F)F)c1,> 16 µM (inactive),

SMILES,EC50,pEC50
CN1CCN(C(c2ccc(C(F)(F)F)cc2)c2cc(Cl)c3cccnc3c2O)CC1 (centres undefined),,5.61
Cc1ccc2ccc3ccc(C)nc3c2n1,> 15 µM (inactive),
CCCCC(=O)NC(c1ccco1)c1cc(Cl)c2cccnc2c1O (centres undefined),,4.98
O=C(NCc1cc([N+](=O)[O-])ccc1O)c1cccnc1Sc1ccccc1Cl,> 15 µM (inactive),
O=C(Cc1ccc(Cl)cc1)NNC(=S)NC(=O)c1cccs1,> 16 µM (inactive),
CC(C)Cc1nc2oc3c(=O)[nH]cnc3c2c2c1CCCC2,> 15 µM (inactive),
CCC(=O)NC(c1cccs1)c1cc(Cl)c2cccnc2c1O (centres undefined),,4.79
O=C(Nc1nc2ccc(SC(F)F)cc2s1)c1ccc(NS(=O)(=O)c2ccc(F)c(F)c2)cc1,> 15 µM (inactive),
COc1cccc(/C=N/Nc2ncnc3scc(-c4ccccc4)c23)c1O,,5.18
CC(C)N1CCc2c(sc(NC(=O)c3nc4ccccc4s3)c2C(N)=O)C1,> 15 µM (inactive),
CCSc1nnc(-c2ccc(C)cc2)c2ccccc12,> 15 µM (inactive),
Cc1cc(C(C#N)c2ccccc2F)n2ncnc2n1 (centres undefined),> 16 µM (inactive),
Nc1ccc(C(=O)N/N=C\c2ccc(OC(=O)c3ccccc3Cl)cc2)cc1,> 16 µM (inactive),
COc1ccc(-c2nnc(NC(=O)c3cc(Cl)ccc3Cl)o2)cc1,> 15 µM (inactive),
CCOC(=O)N1C(=O)C2(CCCCC2)N(c2ccccc2Cl)C1=S,,4.84
C[C@]12CCC3[C@@H](CC[C@H]4C[C@@H](O)CC[C@]34C)C1CCC2=O (some centres undefined),> 15 µM (inactive),
Cc1cc(=O)oc2cc(Oc3ccc([N+](=O)[O-])cc3[N+](=O)[O-])ccc12,> 16 µM (inactive),
CC1(C)COCN1S(=O)(=O)c1ccc(C(=O)Nc2nnc(-c3ccc(Cl)s3)o2)cc1,> 16 µM (inactive),
O=C(Oc1c(Cl)cc(Cl)c2cccnc12)c1cccs1,,5.85
CC(C)CC(=O)NC(c1cccs1)c1ccc2cccnc2c1O (centres undefined),,4.85
C=CCn1c(N)nc2ccccc21,> 16 µM (inactive),
COc1ccc(/C=C/c2cc(-c3ccc(C)cc3)o[n+]2C)cc1,> 16 µM (inactive),
COc1cccc(C2CC(c3ccc(NS(C)(=O)=O)cc3)=NN2C(=O)c2ccccc2)c1OC (centres undefined),> 15 µM (inactive),
Cc1ccc(C)c(NC(=S)NNC(=O)c2csc(C(C)C)c2)c1,> 16 µM (inactive),
